Experiments:
BaF3-CD74-NTRK1-V573M = molecular target: T1, BaF3-CD74-NTRK1-V573M (Homo sapiens, UniProt P04629, V573M); assay: Drug-resistant cell proliferation inhibition (CCK-8); assay type: cell-based, mouse; details: 72 hours, read-out: drug-resistant cell viability IC50
T1 construct: constructed pCDNA3.1(+) plasmid vector carrying genes such as BaF3-CD74-NTRK1-G667C; fused on or other part: P04233 (HLA class II histocompatibility antigen gamma chain)
From the text: (§1) BaF3 cells (mouse pre-B cells) used in this experiment were purchased from Japan Cell Bank, all of the monoclonal stable strains, BaF3-CD74-NTRK1-G667C, BaF3-CD74-NTRK1-F589L, BaF3-CD74-NTRK1-G595R, BaF3-CD74-NTRK1-G667A, BaF3-CD74-NTRK1-V573M, BaF3-ETV6-NTRK2-G639R, BaF3-ETV6-NTRK2-G709C, BaF3-ETV6-NTRK2-V617M, BaF3-ETV6-NTRK2-F633L, BaF3-ETV6-NTRK3-G696C, BaF3-ETV6-NTRK3-G696A, BaF3-ETV6-NTRK3-G623R, BaF3-ETV6-NTRK3-G623E, BaF3-ETV6-NTRK3-F617L and BaF3-ETV6-NTRK3-V601M were constructed by our laboratory, and were identified by experiments such as positive control, protein expression and gene sequencing.
(§2) The brief steps for stable strains construction were as follows: constructed pCDNA3.1(+) plasmid vector carrying genes such as BaF3-CD74-NTRK1-G667C, BaF3-CD74-NTRK1-F589L, BaF3-CD74-NTRK1-G595R, BaF3-CD74-NTRK1-G667A, BaF3-CD74-NTRK1-V573M, BaF3-ETV6-NTRK2-G639R, BaF3-ETV6-NTRK2-G709C, BaF3-ETV6-NTRK2-V617M, BaF3-ETV6-NTRK2-F633L, BaF3-ETV6-NTRK3-G696C, BaF3-ETV6-NTRK3-G696A, BaF3-ETV6-NTRK3-G623R, BaF3-ETV6-NTRK3-G623E, BaF3-ETV6-NTRK3-F617L and BaF3-ETV6-NTRK3-V601M; the plasmid was electroporated into Ba/F3 cells using Amaxa® Cell Line Nucleofector® Kit V; 48 hours after of electroporation, geneticin (G418) with a final concentration of 1000 μg/mL was added to screen for two weeks, and the interleukin 3 (IL3) was removed to continue screening to obtain polyclonal stable strains; and then single clones were selected by limiting dilution method; the stable strains were then identified by the positive drugs, Western Blot (WB), and gene sequencing; the correct monoclonal through identification can be used to study the cell proliferation inhibitory activity of the inhibitors.
(§3) Cell proliferation inhibitory activity study: The cells in logarithmic growth phase were seeded into 96-well plates at 8000-12000 cells/well, and the inhibitors at different concentrations of (0-10 μM) were added the next day, and the culture was continued for 72 hours; then 10 μL of Cell Counting Kit-8 Cell Counting Reagent (CCK-8 Reagent) was added to each well, and continued to incubate for 1-3 hours; then its absorbance at 450 nm and 650 nm were measured with a super microplate reader. The median inhibitory concentration (IC50) was calculated using medical graphing software (GraphPad Prism 8.0.0).

BaF3-ETV6-NTRK3-G696C = molecular target: T2, BaF3-ETV6-NTRK3-G696C (Homo sapiens, UniProt Q16288, G696C); assay: as above; assay type: cell-based, mouse; details: 72 hours, read-out: drug-resistant cell viability IC50
T2 construct: constructed pCDNA3.1(+) plasmid vector carrying genes such as; fused on or other part: P41212 (Transcription factor ETV6)
T2 sequence (Q16288 whole entry G696C, the tested form may be a part): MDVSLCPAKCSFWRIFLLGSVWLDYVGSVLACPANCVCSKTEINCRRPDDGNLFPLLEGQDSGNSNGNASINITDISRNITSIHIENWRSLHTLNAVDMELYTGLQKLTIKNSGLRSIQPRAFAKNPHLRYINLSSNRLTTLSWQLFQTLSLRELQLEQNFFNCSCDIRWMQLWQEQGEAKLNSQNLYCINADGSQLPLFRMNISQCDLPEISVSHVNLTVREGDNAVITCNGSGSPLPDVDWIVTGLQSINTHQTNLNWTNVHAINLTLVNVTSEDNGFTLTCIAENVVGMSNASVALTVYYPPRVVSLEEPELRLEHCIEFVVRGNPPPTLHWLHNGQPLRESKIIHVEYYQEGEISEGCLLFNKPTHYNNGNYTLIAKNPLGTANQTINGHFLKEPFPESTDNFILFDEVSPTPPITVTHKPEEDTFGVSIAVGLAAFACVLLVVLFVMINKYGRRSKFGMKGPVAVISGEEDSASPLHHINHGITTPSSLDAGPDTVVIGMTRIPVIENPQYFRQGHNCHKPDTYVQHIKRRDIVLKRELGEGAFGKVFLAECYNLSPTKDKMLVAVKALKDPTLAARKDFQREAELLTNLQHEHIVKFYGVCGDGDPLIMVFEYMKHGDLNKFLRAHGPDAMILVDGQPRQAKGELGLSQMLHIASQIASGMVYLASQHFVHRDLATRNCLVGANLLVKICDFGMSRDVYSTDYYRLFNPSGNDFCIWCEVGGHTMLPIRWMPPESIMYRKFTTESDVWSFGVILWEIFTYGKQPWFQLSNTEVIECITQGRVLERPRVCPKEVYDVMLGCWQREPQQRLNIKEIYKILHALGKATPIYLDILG
From the text: as §1, §2, §3

BaF3-ETV6-NTRK3-G623R = molecular target: T3, BaF3-ETV6-NTRK3-G623R (Homo sapiens, UniProt Q16288, G623R); assay: as above; assay type: cell-based, mouse; details: 72 hours, read-out: drug-resistant cell viability IC50
T3 construct: constructed pCDNA3.1(+) plasmid vector carrying genes such as; fused on or other part: P41212 (Transcription factor ETV6)
T3 sequence (Q16288 whole entry G623R, the tested form may be a part): as the sequence (Q16288 whole entry G696C, the tested form may be a part) above, with G623R, C696G counted along it
From the text: as §1, §2, §3

BaF3-CD74-NTRK1-G667C = molecular target: T4, BaF3-CD74-NTRK1-G667C (Homo sapiens, UniProt P04629, G667C); assay: as above; assay type: cell-based, mouse; details: 72 hours, read-out: drug-resistant cell viability IC50
T4 construct: fused on or other part: P04233 (HLA class II histocompatibility antigen gamma chain)
T4 sequence (P04629 510-796 G667C limits assumed): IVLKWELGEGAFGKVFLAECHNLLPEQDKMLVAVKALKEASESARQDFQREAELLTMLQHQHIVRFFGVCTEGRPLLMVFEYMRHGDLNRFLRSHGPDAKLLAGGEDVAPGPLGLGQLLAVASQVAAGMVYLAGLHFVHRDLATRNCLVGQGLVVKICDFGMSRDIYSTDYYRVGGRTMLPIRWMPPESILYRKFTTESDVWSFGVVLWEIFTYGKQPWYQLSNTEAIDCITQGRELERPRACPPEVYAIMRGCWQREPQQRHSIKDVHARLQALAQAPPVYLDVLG
From the text: as §1, §2, §3

BaF3-ETV6-NTRK3-G623E = molecular target: T5, BaF3-ETV6-NTRK3-G623E (Homo sapiens, UniProt Q16288, G623E); assay: as above; assay type: cell-based, mouse; details: 72 hours, read-out: drug-resistant cell viability IC50
T5 construct: constructed pCDNA3.1(+) plasmid vector carrying genes such as; fused on or other part: P41212 (Transcription factor ETV6)
T5 sequence (Q16288 whole entry G623E, the tested form may be a part): as the sequence (Q16288 whole entry G696C, the tested form may be a part) above, with G623E, C696G counted along it
From the text: as §1, §2, §3

BaF3-CD74-NTRK1-F589L = molecular target: T6, BaF3-CD74-NTRK1-F589L (Homo sapiens, UniProt P04629, F589L); assay: as above; assay type: cell-based, mouse; details: 72 hours, read-out: drug-resistant cell viability IC50
T6 construct: fused on or other part: P04233 (HLA class II histocompatibility antigen gamma chain)
T6 sequence (P04629 510-796 F589L limits assumed): as the sequence (P04629 510-796 G667C limits assumed) above, with F80L, C158G counted along it
From the text: as §1, §2, §3

BaF3-CD74-NTRK1-G595R = molecular target: T7, BaF3-CD74-NTRK1-G595R (Homo sapiens, UniProt P04629, G595R); assay: as above; assay type: cell-based, mouse; details: 72 hours, read-out: drug-resistant cell viability IC50
T7 construct: constructed pCDNA3.1(+) plasmid vector carrying genes such as; fused on or other part: P04233 (HLA class II histocompatibility antigen gamma chain)
T7 sequence (P04629 510-796 G595R limits assumed): as the sequence (P04629 510-796 G667C limits assumed) above, with G86R, C158G counted along it
From the text: as §1, §2, §3

BaF3-ETV6-NTRK3-G696A = molecular target: T8, BaF3-ETV6-NTRK3-G696A (Homo sapiens, UniProt Q16288, G696A); assay: as above; assay type: cell-based, mouse; details: 72 hours, read-out: drug-resistant cell viability IC50
T8 construct: constructed pCDNA3.1(+) plasmid vector carrying genes such as; fused on or other part: P41212 (Transcription factor ETV6)
T8 sequence (Q16288 whole entry G696A, the tested form may be a part): as the sequence (Q16288 whole entry G696C, the tested form may be a part) above, with C696A counted along it
From the text: as §1, §2, §3

BaF3-ETV6-NTRK3-F617L = molecular target: T9, BaF3-ETV6-NTRK3-F617L (Homo sapiens, UniProt Q16288, F617L); assay: as above; assay type: cell-based, mouse; details: 72 hours, read-out: drug-resistant cell viability IC50
T9 construct: constructed pCDNA3.1(+) plasmid vector carrying genes such as; fused on or other part: P41212 (Transcription factor ETV6)
T9 sequence (Q16288 whole entry F617L, the tested form may be a part): as the sequence (Q16288 whole entry G696C, the tested form may be a part) above, with F617L, C696G counted along it
From the text: as §1, §2, §3

BaF3-ETV6-NTRK3-V601M = molecular target: T10, BaF3-ETV6-NTRK3-V601M (Homo sapiens, UniProt Q16288, V601M); assay: as above; assay type: cell-based, mouse; details: 72 hours, read-out: drug-resistant cell viability IC50
T10 construct: constructed pCDNA3.1(+) plasmid vector carrying genes such as; fused on or other part: P41212 (Transcription factor ETV6)
T10 sequence (Q16288 whole entry V601M, the tested form may be a part): as the sequence (Q16288 whole entry G696C, the tested form may be a part) above, with V601M, C696G counted along it
From the text: as §1, §2, §3

TRKA = molecular target: T11, TRKA (Homo sapiens, UniProt P04629); assay: Z'-LYTE kinase activity detection, TRKA; assay type: biochemical
T11 construct: purchased American Life Technologies PV3144
T11 sequence (P04629 33-796): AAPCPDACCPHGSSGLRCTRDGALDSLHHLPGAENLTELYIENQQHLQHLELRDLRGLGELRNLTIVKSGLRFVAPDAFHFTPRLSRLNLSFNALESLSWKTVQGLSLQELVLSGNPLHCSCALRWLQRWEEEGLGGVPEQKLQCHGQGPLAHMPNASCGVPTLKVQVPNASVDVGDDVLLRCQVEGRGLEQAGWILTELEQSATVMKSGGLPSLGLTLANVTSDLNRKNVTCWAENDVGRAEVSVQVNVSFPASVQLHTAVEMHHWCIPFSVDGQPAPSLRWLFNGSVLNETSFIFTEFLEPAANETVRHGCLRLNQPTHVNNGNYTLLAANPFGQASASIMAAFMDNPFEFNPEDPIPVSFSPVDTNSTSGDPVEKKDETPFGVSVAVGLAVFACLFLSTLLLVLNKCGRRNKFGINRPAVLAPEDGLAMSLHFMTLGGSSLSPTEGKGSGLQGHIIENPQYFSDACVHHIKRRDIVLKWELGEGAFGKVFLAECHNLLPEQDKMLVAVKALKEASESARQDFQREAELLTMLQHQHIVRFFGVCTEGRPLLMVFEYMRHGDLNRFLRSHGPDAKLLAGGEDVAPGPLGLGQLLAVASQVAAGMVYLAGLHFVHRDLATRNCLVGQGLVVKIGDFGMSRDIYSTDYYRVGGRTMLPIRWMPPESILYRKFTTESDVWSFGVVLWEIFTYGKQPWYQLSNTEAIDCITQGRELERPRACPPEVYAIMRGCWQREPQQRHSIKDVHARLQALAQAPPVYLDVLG

TRKC = molecular target: T12, TRKC (Homo sapiens, UniProt Q16288); assay: Z'-LYTE kinase activity detection, TRKC; assay type: biochemical
T12 construct: purchased American Life Technologies PV3617
T12 sequence (Q16288 32-839): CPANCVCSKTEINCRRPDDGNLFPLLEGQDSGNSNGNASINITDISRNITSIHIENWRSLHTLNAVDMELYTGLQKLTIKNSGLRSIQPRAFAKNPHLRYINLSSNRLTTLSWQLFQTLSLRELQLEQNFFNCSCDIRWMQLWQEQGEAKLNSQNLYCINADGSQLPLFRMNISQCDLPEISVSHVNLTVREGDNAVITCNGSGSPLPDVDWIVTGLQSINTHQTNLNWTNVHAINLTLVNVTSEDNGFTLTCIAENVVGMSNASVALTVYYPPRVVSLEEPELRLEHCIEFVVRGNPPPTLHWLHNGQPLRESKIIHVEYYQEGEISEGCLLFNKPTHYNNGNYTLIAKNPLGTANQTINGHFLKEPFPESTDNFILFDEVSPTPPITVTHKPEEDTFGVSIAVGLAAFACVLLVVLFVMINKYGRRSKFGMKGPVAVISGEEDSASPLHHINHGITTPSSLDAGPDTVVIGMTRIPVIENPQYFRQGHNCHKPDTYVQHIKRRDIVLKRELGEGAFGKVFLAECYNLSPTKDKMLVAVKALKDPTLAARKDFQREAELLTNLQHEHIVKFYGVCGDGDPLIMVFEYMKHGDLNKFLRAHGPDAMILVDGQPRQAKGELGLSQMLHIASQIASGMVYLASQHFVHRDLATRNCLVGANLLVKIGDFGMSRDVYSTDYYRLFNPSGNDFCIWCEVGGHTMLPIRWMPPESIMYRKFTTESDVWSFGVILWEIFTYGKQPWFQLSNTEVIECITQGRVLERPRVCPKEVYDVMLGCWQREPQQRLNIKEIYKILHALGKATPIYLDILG

BaF3-ETV6-NTRK2-F633L = molecular target: T13, BaF3-ETV6-NTRK2-F633L (Homo sapiens, UniProt Q16620, F617L); assay: Drug-resistant cell proliferation inhibition (CCK-8); assay type: cell-based, mouse; details: 72 hours, read-out: drug-resistant cell viability IC50
T13 construct: constructed pCDNA3.1(+) plasmid vector carrying genes such as; fused on or other part: P41212 (Transcription factor ETV6)
T13 sequence (Q16620 538-822 F617L limits assumed): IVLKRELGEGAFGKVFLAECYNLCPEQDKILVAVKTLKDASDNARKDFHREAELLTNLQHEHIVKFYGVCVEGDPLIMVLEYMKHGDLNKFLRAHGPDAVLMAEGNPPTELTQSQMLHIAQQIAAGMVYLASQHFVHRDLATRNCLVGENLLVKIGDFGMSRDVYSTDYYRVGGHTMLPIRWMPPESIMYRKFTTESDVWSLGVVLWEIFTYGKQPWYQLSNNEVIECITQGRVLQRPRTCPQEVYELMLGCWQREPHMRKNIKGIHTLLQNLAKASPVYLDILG
From the text: as §1, §2, §3

BaF3-ETV6-NTRK2-G709C = molecular target: T14, BaF3-ETV6-NTRK2-G709C (Homo sapiens, UniProt Q16620, G693C); assay: as above; assay type: cell-based, mouse; details: 72 hours, read-out: drug-resistant cell viability IC50
T14 construct: constructed pCDNA3.1(+) plasmid vector carrying genes such as; fused on or other part: P41212 (Transcription factor ETV6)
T14 sequence (Q16620 538-822 G693C limits assumed): as the sequence (Q16620 538-822 F617L limits assumed) above, with L80F, G156C counted along it
From the text: as §1, §2, §3

BaF3-ETV6-NTRK2-V617M = molecular target: T15, BaF3-ETV6-NTRK2-V617M (Homo sapiens, UniProt Q16620, V601M); assay: as above; assay type: cell-based, mouse; details: 72 hours, read-out: drug-resistant cell viability IC50
T15 construct: constructed pCDNA3.1(+) plasmid vector carrying genes such as; fused on or other part: P41212 (Transcription factor ETV6)
T15 sequence (Q16620 538-822 V601M limits assumed): as the sequence (Q16620 538-822 F617L limits assumed) above, with V64M, L80F counted along it
From the text: as §1, §2, §3

BaF3-ETV6-NTRK2-G639R = molecular target: T16, BaF3-ETV6-NTRK2-G639R (Homo sapiens, UniProt Q16620, G623R); assay: as above; assay type: cell-based, mouse; details: 72 hours, read-out: drug-resistant cell viability IC50
T16 construct: constructed pCDNA3.1(+) plasmid vector carrying genes such as; fused on or other part: P41212 (Transcription factor ETV6)
T16 sequence (Q16620 538-822 G623R limits assumed): as the sequence (Q16620 538-822 F617L limits assumed) above, with L80F, G86R counted along it
From the text: as §1, §2, §3

TRKB = molecular target: T17, TRKB (Homo sapiens, UniProt Q16620); assay: Z'-LYTE kinase activity detection, TRKB; assay type: biochemical
T17 construct: purchased American Life Technologies PV3616
T17 sequence (Q16620 32-822): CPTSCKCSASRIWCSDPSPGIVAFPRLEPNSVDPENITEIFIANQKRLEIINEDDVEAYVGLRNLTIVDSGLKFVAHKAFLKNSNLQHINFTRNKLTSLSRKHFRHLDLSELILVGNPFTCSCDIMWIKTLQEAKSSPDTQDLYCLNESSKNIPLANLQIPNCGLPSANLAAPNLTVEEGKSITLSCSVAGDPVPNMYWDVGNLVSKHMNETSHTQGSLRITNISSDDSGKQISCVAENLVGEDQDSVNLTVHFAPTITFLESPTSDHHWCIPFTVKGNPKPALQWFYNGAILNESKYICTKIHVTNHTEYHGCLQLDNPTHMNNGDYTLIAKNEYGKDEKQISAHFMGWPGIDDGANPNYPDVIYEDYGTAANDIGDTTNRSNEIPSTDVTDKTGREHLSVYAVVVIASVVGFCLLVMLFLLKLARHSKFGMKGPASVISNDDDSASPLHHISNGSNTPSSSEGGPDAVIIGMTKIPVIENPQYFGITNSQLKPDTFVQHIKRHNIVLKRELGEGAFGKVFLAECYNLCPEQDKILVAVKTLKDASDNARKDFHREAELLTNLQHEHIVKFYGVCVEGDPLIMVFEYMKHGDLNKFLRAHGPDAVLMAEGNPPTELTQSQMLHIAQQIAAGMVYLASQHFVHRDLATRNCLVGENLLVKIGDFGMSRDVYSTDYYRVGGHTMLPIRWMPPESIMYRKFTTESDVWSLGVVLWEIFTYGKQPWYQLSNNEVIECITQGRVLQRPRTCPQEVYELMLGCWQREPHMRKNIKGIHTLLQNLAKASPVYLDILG

T1 sequence (P04629 510-796 V573M limits assumed): as the sequence (P04629 510-796 G667C limits assumed) above, with V64M, C158G counted along it

Row | Compound | IC50 (BaF3-CD74-NTRK1-V573M) [nM] | IC50 (BaF3-ETV6-NTRK3-G696C) [nM] | IC50 (BaF3-ETV6-NTRK3-G623R) [nM] | IC50 (BaF3-CD74-NTRK1-G667C) [nM] | IC50 (BaF3-ETV6-NTRK3-G623E) [nM] | IC50 (BaF3-CD74-NTRK1-F589L) [nM] | IC50 (BaF3-CD74-NTRK1-G595R) [nM] | IC50 (BaF3-ETV6-NTRK3-G696A) [nM] | IC50 (BaF3-ETV6-NTRK3-F617L) [nM] | IC50 (BaF3-ETV6-NTRK3-V601M) [nM] | IC50 (TRKA) [nM] | IC50 (TRKC) [nM] | IC50 (BaF3-ETV6-NTRK2-F633L) [nM] | IC50 (BaF3-ETV6-NTRK2-G709C) [nM] | IC50 (BaF3-ETV6-NTRK2-V617M) [nM] | IC50 (BaF3-ETV6-NTRK2-G639R) [nM] | IC50 (TRKB) [nM]
1 | Cc1c(C#Cc2cnc3ccc(N4CCC(O)CC4)nn23)cccc1C(=O)Nc1cc(Cl)cc(C(F)(F)F)c1 [XS3-55, N-(3-CHLORO-5-(TRIFLUOROMETHYL)PHENYL)-3-((6-(4-HYDROXYPIPERIDIN-1-YL)IMIDAZO[1,2-B]PYRIDAZINE-3-YL)ETHYNYL)-2-METHYLBENZAMIDE] | 10 to 100 | < 10 | 100 to 1000 | < 10 | < 10 | 100 to 1000 | > 1000 | < 10 | 10 to 100 | < 10 | < 10 | 10 to 100 |  |  |  |  | 
2 | Cc1c(C#Cc2cnc3ccc(N4CCOCC4)nn23)cccc1C(=O)Nc1cc(CN2CCN(C)CC2)cc(C(F)(F)F)c1 [XS3-68, 2-METHYL-N-(3-((4-METHYLPIPERAZIN-1-YL)METHYL)-5-(TRIFLUOROMETHYL)PHENYL)-3-((6-METHYLENE) LINOIMIDAZO[1,2-B]PYRIDAZIN-3-YL)ETHYNYL)BENZAMIDE] | 10 to 100 | < 10 | 10 to 100 | < 10 | < 10 | 100 to 1000 | 100 to 1000 | < 10 | 10 to 100 | < 10 | < 10 | < 10 | 100 to 1000 | < 10 | < 10 | 10 to 100 | < 10
3 | Cc1c(C#Cc2cnc3ccc(N4CCC(O)CC4)nn23)cccc1C(=O)Nc1cc(CN2CCN(C)CC2)cc(C(F)(F)F)c1 [XS3-81, 3-((6-(4-HYDROXYPIPERIDIN-1-YL)IMIDAZO[1,2-B]PYRIDAZIN-3-YL)ETHYNYL)-2-METHYL-N-(3-(((4-METHYLPIPERAZIN-1-YL)METHYL)-5-(TRIFLUOROMETHYL)PHENYL)BENZAMIDE] | < 10 | < 10 | 10 to 100 | < 10 | < 10 | 100 to 1000 | 100 to 1000 | < 10 | 10 to 100 | < 10 | < 10 | < 10 | 100 to 1000 | 10 to 100 | < 10 | 10 to 100 | < 10
4 | Cc1cn(-c2cc(NC(=O)c3cccc(C#Cc4cnc5ccc(N6CCC(O)CC6)nn45)c3C)cc(C(F)(F)F)c2)cn1 [XS3-87, 3-((6-(4-HYDROXYPIPERIDIN-1-YL)IMIDAZO[1,2-B]PYRIDAZIN-3-YL)ETHYNYL)-2-METHYL-N-(3-(4-METHYL-1H-IMIDAZOL-1-YL)-5-(TRIFLUOROMETHYL)PHENYL)BENZAMIDE] | < 10 | < 10 | 10 to 100 | < 10 | < 10 | 10 to 100 | 100 to 1000 | < 10 | < 10 | < 10 | < 10 | < 10 | 10 to 100 | < 10 | < 10 | 10 to 100 | < 10

Reference: patent US11834454B2, “Alkynylphenylbenzamide compounds and applications thereof” (SHENZHEN NEWDEL BIOTECH CO., LTD., priority 2021, dated 2023)
